According to patent US20170304309A1, “CAFFEINE FOR THE TREATMENT OF MYOTONIC DYSTROPHY TYPE 1 AND TYPE 2” (UNIVERSITAT DE VALÈNCIA, priority 2014, published 2017):

Key:
CAG-CTG repeat sequences = conditions: high doses of caffeine, close to 2 mM; cited from earlier work
[1] = test system: MBNL1 expression in human DM1 myoblasts; assay: Immunodetection of MBNL1 in DM1 myoblasts; type: cell-based
Procedure: Fibroblasts were transdifferentiated in myoblasts by inducing expression of MyoD. Cells were plated in muscle differentiation medium (MDM) made of DMEM 4.5 g/L glucose with 1% P/S, 2% horse serum, 1% apo-transferrin (10 mg/ml), 0.1% insulin (10 mg/ml) and 0.02% doxycyclin (10 mg/ml) for 48 h. For compound testing fibroblasts were aliquoted in 24-well plate with 3.5×10^4 cells per well and were differentiated as before. […] Cells were then incubated with ABC solution (ABC kit, VECTASTAIN) for 30 min at room temperature, followed by PBT washes and incubation with streptavidin-FITC (1:1000) for 20 min.

[2] = test system: human MBNL1 promoter under Drosophila muscleblind ME enhancer (eGFP reporter); assay: eGFP reporter expression in ME:hsaP1-eGFP transgenic flies; type: in vivo; conditions: heterozygous ME:hsaP1-eGFP flies, 25 mg/ml caffeine in food, 8 h, vs sucrose
DM1 model flies = assay: Climbing assay in DM1 model flies; type: in vivo, Drosophila; conditions: 1.72 mM caffeine in nutritive media vs DMSO
Procedure: Groups of ten 5-day-old males were transferred into vials of 1.5 cm in diameter and 25 cm in height, after a period of 24 hours without anesthesia. The height reached from the bottom of the vial by each fly in a period of 10 s was recorded with a camera. For each genotype, approximately 30 flies were tested. […] We used a t-test to assess the statistical difference between the two groups of flies, fed with or without compound.

foci = conditions: WO03/020977; cited from earlier work
normal fibroblasts = assay: MTS cell viability of normal fibroblasts exposed to caffeine; type: cell-based, human; conditions: highest concentration (500 μM), 24 h, relative to cells not exposed to caffeine
Procedure: Cells were aliquoted in 96-well plate with 1.0×10^4 cells per well and incubated for 24 h. […] To measure cell viability, MTS tetrazolium salt was added to each well and was incubated for 4 h at 37° C. in a humidified chamber with 5% CO2. The conversion of MTS into soluble formazan (accomplished by dehydrogenase enzymes from metabolically active cells) was measured by absorbance at 490 nm (CellTiter 96® Aqueous Non-Radioactive Cell Profileration Assay, Promega). Data were transformed to percentage of survival relative to cells not exposed to caffeine, which established 100% viability.

[3] = test system: ribonuclear foci in DM1 fibroblasts; assay: Ribonuclear foci detection by in situ hybridization in DM1 fibroblasts; conditions: caffeine in culture media, vs DMSO
Procedure: Cell model of the disease (provided by the D. Furling's laboratory, Institute of Myologie, Paris) consisted of normal and DM1 (1300 CTG repeats) immortalized (hTERT) skin fibroblasts expressing conditional MyoD. […] Fibroblasts were transdifferentiated in myoblasts by inducing expression of MyoD. Cells were plated in muscle differentiation medium (MDM) made of DMEM 4.5 g/L glucose with 1% P/S, 2% horse serum, 1% apo-transferrin (10 mg/ml), 0.1% insulin (10 mg/ml) and 0.02% doxycyclin (10 mg/ml) for 48 h. For compound testing fibroblasts were aliquoted in 24-well plate with 3.5×10^4 cells per well and were differentiated as before.

[4] = test system: CUG repeat RNA (6-FAM-CUG23); assay: Fluorescence polarization assay with 6-FAM-CUG23 RNA; type: binding; conditions: increasing concentrations, up to twice those of positive control pentamidine
Procedure: This was assessed in fluorescence polarization spectroscopy experiments in which fluorescent CUG RNA probe (carboxyfluorescein (6-FAM)-labeled) was incubated in increasing concentrations of caffeine.
Carboxyfluorescein-labeled CUG RNA (23 CUG repeats; 6-FAM-CUG23) at 6 nM was incubated with caffeine at different concentrations in binding buffer (50 mM Tris-HCl pH 7.0, 250 mM NaCl, 50 μM ZnCl2, 10% glycerol, 1 mM DTT) on ice for 20 min in the dark. Polarization was measured in a EnVision® Multilabel Reader using as excitation filter FP480 and as emission filter FP535.

CUG repeats = conditions: WO03/020977; cited from earlier work
sodium channel = conditions: small studies; cited from earlier work
[5] = test system: DM1 pathology (splicing defects); conditions: cited from earlier work

In the case of `Cn1c(=O)c2c(ncn2C)n(C)c1=O` [caffeine], the “increase of the rate of expansion” value (CAG-CTG repeat sequences) is listed as ~63%, the “MBNL1 expression in the cytoplasm and in the cell nucleus” value ([1]; 125 and 250 μM caffeine, 48 h, vs DMSO alone) is listed as “increased” and the “number of MBNL1-containing foci” value ([1]; caffeine-treated vs DMSO-treated cells) is listed as “qualitatively higher”. For the same molecule, the “expression of the eGFP reporter, normalized to total protein” value [2] was “significantly increase”, the climbing velocity (DM1 model flies) was “significantly improved” and the number of foci (foci) was “increases”. The “percentage of survival of normal fibroblasts (living cells)” value (normal fibroblasts) was “greater than 50%”, the “mean number of ribonuclear foci per cell” value [3] was “increased” and the “polarization values of 6-FAM-CUG RNA (binding to CUG repeats)” value [4] was “did not increase”. For the same molecule, the “binding to CUG repeats” value (CUG repeats) was “not able to bind”.

In the case of `Cc1cccc(C)c1OCC(C)N` (stereo not drawn) [Mexiletine, mexiletine], the myotonia (sodium channel) is given as “reduced”.

For `N=C(N)c1ccc(OCCCCCOc2ccc(C(=N)N)cc2)cc1` [pentamidine], the “rescue of DM1 pathology” value [5] is given as “partial rescue”.
